Data reported in patent publication US7214669B2, “Tetracycline derivatives and methods of use thereof” (Tetragenex Pharmaceuticals, Inc., priority 2001, dated 2007).
“And” between values parts separate entries of the source, which are not always exact repeats. Equal values may be shown once. Where a name gives a salt, the structure may show the parent alone.

Key:
Human recombinant MMP14 = Human recombinant MMP14 (Homo sapiens, UniProt P50281); experiment: MMP14 (MTI-MMP) inhibition, 14C collagen release; type: biochemical; conditions: 35° C., 15 hours; read-out: MMP-14 inhibitory activity, IC50
Human recombinant MMP3 = Human recombinant MMP3 (Homo sapiens, UniProt P08254); experiment: MMP3 (Stromelysin 1) inhibition, 14C casein release; type: biochemical; conditions: 37° C., 16 hours; read-out: MMP-3 inhibitory activity, IC50
Human recombinant MMP3, sequence (P08254 100-477): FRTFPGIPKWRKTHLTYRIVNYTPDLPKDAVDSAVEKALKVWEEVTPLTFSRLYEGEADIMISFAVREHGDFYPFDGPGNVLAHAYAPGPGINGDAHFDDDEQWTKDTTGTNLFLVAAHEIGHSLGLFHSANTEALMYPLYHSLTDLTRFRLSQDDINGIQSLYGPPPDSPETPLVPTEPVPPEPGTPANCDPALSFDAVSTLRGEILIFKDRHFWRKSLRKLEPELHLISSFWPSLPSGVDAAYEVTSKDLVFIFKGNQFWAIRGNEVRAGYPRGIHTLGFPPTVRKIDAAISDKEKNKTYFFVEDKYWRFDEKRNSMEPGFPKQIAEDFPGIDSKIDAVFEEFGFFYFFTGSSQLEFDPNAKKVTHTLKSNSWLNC

Human recombinant MMP1 = target: T1, Human recombinant MMP1 (Homo sapiens, UniProt P03956); experiment: MMP1 (Collagenase-1) inhibition, 14C collagen release; type: biochemical; conditions: 35° C., 5 hours; read-out: MMP-1 inhibitory activity, IC50
T1 sequence (P03956 100-469): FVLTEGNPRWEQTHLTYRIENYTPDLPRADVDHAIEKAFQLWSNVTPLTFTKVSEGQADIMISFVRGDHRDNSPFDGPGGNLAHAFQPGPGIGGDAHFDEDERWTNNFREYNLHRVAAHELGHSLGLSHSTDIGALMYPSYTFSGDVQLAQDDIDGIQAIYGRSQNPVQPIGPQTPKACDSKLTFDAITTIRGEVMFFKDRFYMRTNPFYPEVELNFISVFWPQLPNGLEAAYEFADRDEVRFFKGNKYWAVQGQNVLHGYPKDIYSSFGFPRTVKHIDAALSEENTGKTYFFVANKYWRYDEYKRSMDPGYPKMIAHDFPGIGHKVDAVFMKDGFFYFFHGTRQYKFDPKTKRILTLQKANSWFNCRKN

MMP2 (Gelatinase A) = target: T2, MMP2 (Gelatinase A) (Homo sapiens, UniProt P08253); experiment: MMP2 (Gelatinase A) inhibition, 14C gelatin release; type: biochemical; conditions: 37° C., 16 hours; read-out: MMP-2 inhibitory activity, IC50
T2 sequence (P08253 110-660): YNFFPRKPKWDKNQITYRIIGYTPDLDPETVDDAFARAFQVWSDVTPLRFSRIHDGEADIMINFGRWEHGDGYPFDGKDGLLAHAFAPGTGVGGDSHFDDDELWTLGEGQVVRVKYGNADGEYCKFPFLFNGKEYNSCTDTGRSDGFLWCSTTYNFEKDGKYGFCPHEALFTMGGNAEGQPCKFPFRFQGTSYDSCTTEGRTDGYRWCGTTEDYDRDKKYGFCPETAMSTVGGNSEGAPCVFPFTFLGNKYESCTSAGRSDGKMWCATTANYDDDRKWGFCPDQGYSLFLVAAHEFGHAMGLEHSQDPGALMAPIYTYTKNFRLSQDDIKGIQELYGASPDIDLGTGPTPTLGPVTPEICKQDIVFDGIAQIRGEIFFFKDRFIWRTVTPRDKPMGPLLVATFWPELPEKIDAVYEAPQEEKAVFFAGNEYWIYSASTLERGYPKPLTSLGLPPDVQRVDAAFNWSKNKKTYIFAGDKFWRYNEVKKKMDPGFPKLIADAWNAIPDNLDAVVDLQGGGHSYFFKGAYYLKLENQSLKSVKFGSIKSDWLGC

Human recombinant MMP9 = Human recombinant MMP9 (Homo sapiens, UniProt P14780); experiment: MMP9 (Gelatinase B) inhibition, 14C gelatin release; type: biochemical; conditions: 37° C., 16 hours; read-out: MMP-9 inhibitory activity, IC50
Human recombinant MMP9, sequence (P14780 94-707): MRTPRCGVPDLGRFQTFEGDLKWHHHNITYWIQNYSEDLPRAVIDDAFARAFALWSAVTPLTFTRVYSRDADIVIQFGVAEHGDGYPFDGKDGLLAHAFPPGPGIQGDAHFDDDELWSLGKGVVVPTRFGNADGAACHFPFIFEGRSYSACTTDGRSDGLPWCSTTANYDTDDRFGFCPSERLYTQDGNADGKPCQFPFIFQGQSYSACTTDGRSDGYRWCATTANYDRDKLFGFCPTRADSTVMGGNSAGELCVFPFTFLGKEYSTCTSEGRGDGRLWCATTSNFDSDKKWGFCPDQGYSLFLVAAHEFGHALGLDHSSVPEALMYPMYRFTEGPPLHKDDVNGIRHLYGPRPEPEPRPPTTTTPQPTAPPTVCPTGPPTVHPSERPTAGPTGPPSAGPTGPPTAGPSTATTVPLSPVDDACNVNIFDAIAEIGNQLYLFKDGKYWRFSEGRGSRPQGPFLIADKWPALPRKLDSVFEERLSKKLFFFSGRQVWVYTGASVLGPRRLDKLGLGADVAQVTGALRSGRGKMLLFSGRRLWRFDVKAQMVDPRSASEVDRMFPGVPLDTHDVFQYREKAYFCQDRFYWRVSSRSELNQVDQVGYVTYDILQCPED

[1] = system: C8161 human melanoma cells; experiment: Membrane Invasion Culture System (MICS) chemo-invasion assay; type: cell-based; conditions: 25 ug/mL; 24 hours; + = increased invasiveness
From the text: (§1) Another objective was to analyze the effects of specific, tetracycline derived compounds on the in-vitro chemo-invasive potential of: • C8161 human melanoma cells • MDA-MB-231 human breast cancer cells • PC3 human prostate cancer cells • RPM18226 human myeloma cancer cells • Ark human myeloma cancer cells • Arp-1 human myeloma cancer cells
(§2) The Membrane Invasion Culture System (MICS) in vitro chemo-invasion assay was chosen to measure changes in the invasive potential of specific human cancer cells in response to tetracycline derived compounds. Stock solutions of each compound were hydrated in water containing 2% DMSO and pH 10.0. Upon solubilization, HCl was added to the solution to establish a pH of 7.5–8.0. This solution was then wrapped in foil and kept at 4° C. during the 24 hours of assay. Fresh compound was prepared for each assay. The in vitro chemoinvasion analyses for tumor cell invasiveness are performed using the Membrane Invasion Culture System (MICS) as previously described.
(§3) The MICS system is a thermally treated plastic manifold system consisting of two matched sets of plates containing fourteen wells, 13 mm in diameter. Interposed between these plates was a polycarbonate filter containing 10 μm pores and coated with a defined matrix composed of human laminin/collagen IV/gelatin that formed a 35 μm thick barrier between the top and bottom sections of the wells in MICS. Prior to placing this barrier in place, the lower wells were filled with serum-free RPMI culture medium made 50% in conditioned medium obtained from 2-day-old cultures of human fibroblasts which had been cleared of cells and cellular debris by either centrifugation, or filtering through a 0.45 μm sterile filter. The barrier was then placed on the lower wells and fresh serum-free medium added to the upper wells after assembly of the system. Fifty thousand tumor cells were then added to the wells either in the presence of the compound, or the DMSO vehicle (the controls). Of the 12 assay wells on each manifold, 3 randomized wells acted as controls, 3 wells received 1 μg/ml of compound, 3 received 10 μg/ml and 3 received 25 μg/ml. After 24 hours, cells and media were removed from the lower wells and replaced by phosphate buffered saline plus 2 mM EDTA. This solution was used to remove all cells from the lower well, and this wash was added to the recovered cells plus medium from the same well. These samples were then collected onto a polylysine containing polycarbonate membrane containing 3 μm pores using a Dot-Blot manifold system. These collection filters were then fixed in methanol, and stained using Wright's stain (Leukostat staining kit) in situ. The filters were then mounted on microscope slides with microscope immersion oil (which reduced the light refraction from the pores) and 5 microscopic fields were counted to calculate the number of cells which invaded through the membrane over the 24 hour period. These numbers were then statistically analyzed as discussed below.

[2] = system: PC-3 ML human prostate cancer cells; experiment: as above; type: cell-based; conditions: 24 hours, + = increased invasiveness
From the text: as §1, §2, §3

[3] = system: MDA-MB-231 human breast cancer cells; experiment: as above; type: cell-based; conditions: 25 ug/mL; 24 hours; + = increased invasiveness
From the text: as §1, §2, §3

Row | IC50 (Human recombinant MMP14) | IC50 (Human recombinant MMP3) | IC50 (Human recombinant MMP1) | IC50 (MMP2 (Gelatinase A)) | IC50 (Human recombinant MMP9) | Compound | percent inhibition, C8161 (Melanoma) [1] | percent inhibition, PC-3 ML (Prostrate) ([2]; 1 ug/mL) | percent inhibition, PC-3 ML (Prostrate) ([2]; 10 ug/mL) | percent inhibition, PC-3 ML (Prostrate) ([2]; 25 ug/mL) | percent inhibition, MDA-MB-231 (Breast) [3]
1 | 102 µM | 335 µM | 123 µM | 233 µM | 131 µM | CCCCCCN(CCCCCC)c1ccc(O)c2c1C(C)C1C(=C(O)C3(O)C(=O)C(C(N)=O)=C(O)C(N(C)C)C3C1O)C2=O (stereo not shown) [Compound 18, 7-Di-n-Hexylamino-6-deoxy-5-hydroxytetracycline H2SO4] | – | – | – | – | –
2 | 94 µM | 205 µM | 295 µM | 263 µM | 142 µM | 7-Cyclobutylmethylamino-6-deoxy-5-hydroxytetracycline H2SO4 [Compound 33] | – | – | – | – | –
3 | > 1000 µM | 938 µM | 576 µM | > 1000 µM | > 1000 µM | CC(=O)Nc1cc([N+]#N)c(O)c2c1C(C)C1C(=C(O)C3(O)C(=O)C(C(N)=O)=C(O)C(N(C)C)C3C1O)C2=O (stereo not shown) [Compound 30, 7-Acetamido-6-deoxy-5-hydroxytetracycline-9-diazonium H2SO4] | – | – | – | – | –
4 | > 1000 µM | > 1000 µM | > 1000 µM | 306 µM | > 1000 µM | CC(=O)Nc1ccc(O)c2c1C(C)C1C(=C(O)C3(O)C(=O)C(C(N)=O)=C(O)C(N(C)C)C3C1O)C2=O (stereo not shown) [Compound 23, 7-Acetamido-6-deoxy-5-hydroxytetracycline H2SO4] | – | – | – | – | –
5 | 586 µM | > 1000 µM | > 1000 µM | 413 µM | 384 µM | CC(=O)Nc1cc(N)c(O)c2c1C(C)C1C(=C(O)C3(O)C(=O)C(C(N)=O)=C(O)C(N(C)C)C3C1O)C2=O (stereo not shown) [Compound 26, 7-Acetamido-9-amino-6-deoxy-5-hydroxytetracycline H2SO4] | – | – | – | – | –
6 | 266 µM | 281 µM | 429 µM | 511 µM | 162 µM | CC1c2c(N=[N+]=[N-])ccc(O)c2C(=O)C2=C(O)C3(O)C(=O)C(C(N)=O)=C(O)C(N(C)C)C3C(O)C21 (stereo not shown) [Compound 20, 7-Azido-6-deoxy-5-hydroxy-tetracycline H2SO4] | – | – | – | – | –
7 | 608 µM | 283 µM | 539 µM | > 1000 µM | > 1000 µM | CC1c2ccc(N)c(O)c2C(=O)C2=C(O)C3(O)C(=O)C(C(N)=O)=C(O)CC3C(O)C21 (stereo not shown) [Compound 36, 9-animo-4-dedimethylamino-6-deoxy-5-hydroxytetracycline sulfate] | – | – | – | – | –
8 | 185 µM | 303 µM | 974 µM | 397 µM | 148 µM | CC(C)CNc1ccc(O)c2c1C(C)C1C(=C(O)C3(O)C(=O)C(C(N)=O)=C(O)C(N(C)C)C3C1O)C2=O (stereo not shown) [Compound 25, 7-Isobutylamino-6-deoxy-5-hydroxytetracycline H2SO4] | – | – | – | – | –
9 | 459 µM | 462 µM | 396 µM | 254 µM | 341 µM | CC(=O)Nc1cc([N+](=O)[O-])c(O)c2c1C(C)C1C(=C(O)C3(O)C(=O)C(C(N)=O)=C(O)C(N(C)C)C3C1O)C2=O (stereo not shown) [Compound 22, 7-Acetamido-9-nitro-6-deoxy-5-hydroxytetracycline H2SO4] | – | – | – | – | –
10 | 197 µM | 244 µM | 601 µM | 236 µM | 214 µM | CC1c2c(NC3CCC3)ccc(O)c2C(=O)C2=C(O)C3(O)C(=O)C(C(N)=O)=C(O)C(N(C)C)C3C(O)C21 (stereo not shown) [Compound 32, 7-Cyclobutylamino-6-deoxy-5-hydroxytetracycline H2SO4] | – | – | – | – | –
11 | 160 µM | 191 µM | 405 µM | 724 µM | 127 µM | CCCN(CCC)c1ccc(O)c2c1C(C)C1C(=C(O)C3(O)C(=O)C(C(N)=O)=C(O)C(N(C)C)C3C1O)C2=O (stereo not shown) [Compound 24, 7-Di-n-propylamino-6-deoxy-5-hydroxytetracycline H2SO4] | – | – | – | – | –
12 | 69 µM | 95 µM | 230 µM | 175 µM | 215 µM | CC1c2c([N+](=O)[O-])cc(C(C)(C)C)c(O)c2C(=O)C2=C(O)C3(O)C(=O)C(C(N)=O)=C(O)C(N(C)C)C3C(O)C21 (stereo not shown) [Compound 38, 7-nitro-9-tertbutyl-6-deoxy-5-hydroxytetracycline H2SO4] | 66^B percent and 39% | 37^B percent and 38^B percent | 41^B percent and 27^B percent | 41% and 52% | 70^B percent and 37%
13 | 354 µM | 506 µM | 12800 µM | 1930 µM | 424 µM | C[C@H]1c2c(N)ccc(O)c2C(=O)C2=C(O)[C@]3(O)C(=O)C(C(N)=O)=C(O)C[C@@H]3[C@@H](O)[C@@H]21 [Compound 48, 4-Dedimethylamino-7-amino-6-deoxy-5-hydroxyltetracycline H2SO4] | – | – | – | – | –
14 | 115 µM | > 1000 µM | 293 µM | > 1000 µM | 79 µM | CC1c2c([N+]#N)ccc(O)c2C(=O)C2=C(O)C3(O)C(=O)C(C(N)=O)=C(O)C(N(C)C)C3C(O)C21 (stereo not shown) [Compound 21, 6-Deoxy-5-hydroxytetracycline-7-diazonium H2SO4] | – | – | – | – | –
15 | 98 µM | 350 µM | 122 µM | > 1000 µM | 110 µM | CCCCN(CCCC)c1ccc(O)c2c1C(C)C1C(=C(O)C3(O)C(=O)C(C(N)=O)=C(O)C(N(C)C)C3C1O)C2=O (stereo not shown) [Compound 17, 7-Di-n-Butylamino-6-deoxy-5-hydroxytetracycline H2SO4] | – | – | – | – | –
16 | 593 µM | > 1000 µM | 621 µM | 258 µM | 311 µM | C[C@H]1c2c(N(C)C)cc([N+]#N)c(O)c2C(=O)C2=C(O)[C@]3(O)C(=O)C(C(N)=O)=C(O)[C@@H](N(C)C)[C@@H]3[C@@H](O)[C@@H]21 [Compound 31, 7-Dimethylamino-6-deoxy-5-hydroxytetracycline-9-diazonium H2SO4] | – | – | – | – | –
